For one assay, the target named is T1, glucagon receptor (GCGR) (Homo sapiens, UniProt P47871).
T1 construct: expressed in transfected cells; host or cells: CHO-K1 cells overexpressing GCGR (membrane fractions)
Briefly: I125-glucagon binding assay (competition, GCGR membrane fractions). The method, boiled down:
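Membranes from CHO-K1 cells overexpressing GCGR, 7.5 μg/well in 50 mM Tris pH 7.4 with 0.5% BSA, were preincubated 5 min with serially diluted compounds, then given 0.0625 nM final I^125-glucagon for 30 min at 25° C. Bound label was filtered on PEI-coated GF/B and counted; IC50 by non-linear regression.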

Assay [1] has as its target T2, glucagon receptor (GCGR) overexpressed CHO-K1 cells or human primary hepatocytes (Homo sapiens, UniProt P47871).
T2 construct: expressed in transfected cells; host or cells: GCGR overexpressed CHO-K1 cells or human primary hepatocytes (endogenous receptor)
Briefly: Glucagon cAMP inhibition assay (Cisbio cAMP Dynamic 2 HTRF). It counts as cell-based. In outline:
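GCGR-overexpressing CHO-K1 cells or human primary hepatocytes in HBSS with 0.1% BSA and 800 nM IBMX, pre-incubated 30 min with serially diluted compounds (1% DMSO final), then stimulated 30 min at room temperature with glucagon at its EC50. cAMP measured by HTRF after 60 min lysis; IC50 by non-linear regression.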
(In general: Time-resolved FRET reads energy transfer from a long-lived donor to a nearby acceptor.)

The mark [2] stands for this setting: competition with I125-glucagon 0.0625 nM, membrane fractions of GCGR overexpressed CHO-K1 cells.
The mark [3] stands for this setting: inhibition of glucagon (EC50 concentration) induced cAMP production.

Experimental findings from patent US11384060B2, “Amide compounds and use thereof” (ALPHALA CO., LTD., priority 2017, dated 2022) are described below.

Where two headings read alike, the source gives them in different places.

One may read the IC50 as the concentration needed to halve the response being measured.

T2 sequence (P47871 26-477): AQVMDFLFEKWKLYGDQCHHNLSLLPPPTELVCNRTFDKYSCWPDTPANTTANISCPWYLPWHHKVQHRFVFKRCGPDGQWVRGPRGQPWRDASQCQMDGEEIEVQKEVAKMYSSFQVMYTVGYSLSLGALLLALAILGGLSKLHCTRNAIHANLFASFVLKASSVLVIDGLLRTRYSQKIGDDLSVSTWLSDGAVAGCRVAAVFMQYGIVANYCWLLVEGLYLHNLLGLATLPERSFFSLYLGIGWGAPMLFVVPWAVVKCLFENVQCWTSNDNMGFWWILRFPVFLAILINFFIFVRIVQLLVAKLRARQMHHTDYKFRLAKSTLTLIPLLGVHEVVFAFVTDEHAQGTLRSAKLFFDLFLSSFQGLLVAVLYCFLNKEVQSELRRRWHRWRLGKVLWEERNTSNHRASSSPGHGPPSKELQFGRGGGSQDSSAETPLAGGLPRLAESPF
T1 sequence (P47871 26-477): as above

`CC(C)[C@@H](COc1ccc(-c2cc3ccccc3o2)cc1)Nc1ccc(C(=O)NCCC(=O)O)cc1` [Compound 1-2, (S)-3-(4-((1-(4-(benzofuran-2-yl)phenoxy)-3-methylbutan-2-yl)amino)benzamido)propanoic Acid] gave an IC50 on glucagon receptor (GCGR) (setting [2]) of 207 nM. Also, the “IC50 cAMP” value in assay [1] (setting [3]) is recorded as 195.6 nM.
The matching figures for `CC(C)[C@@H](COc1ccc(-c2cn3ccccc3n2)cc1)Nc1ccc(C(=O)NCCC(=O)O)cc1` [Compound 1-39, (S)-3-(4-((1-(4-(imidazo[1,2-a]pyridin-2-yl)phenoxy)-3-methylbutan-2-yl)amino)benzamido)propanoic Acid]: 3810 nM and 17895 nM.
The like results for `CCOC[C@@H](COc1ccc(-c2cc3ccccc3o2)cc1)Nc1ccc(C(=O)NCCC(=O)O)cc1` [Compound 6-3, (S)-3-(4-((1-(4-(benzofuran-2-yl)phenoxy)-3-ethoxypropan-2-yl)amino)benzamido)propanoic Acid] were, in that order, 479 nM and 3859 nM.
The matching figures for `CC(C)[C@@H](COc1ccc(-c2ccc(C(F)(F)F)nn2)cc1)Nc1ccc(C(=O)NCCC(=O)O)cc1` [Compound 1-29, (S)-3-(4-((3-methyl-1-(4-(6-(trifluoromethyl)pyridazin-3-yl)phenoxy)butan-2-yl)amino)benzamido)propanoic Acid]: 2790 nM and greater than 30000 nM.
With `CC(C)C[C@@H](COc1ccc(-c2ccc(C(F)(F)F)cc2Cl)nc1)Nc1ccc(C(=O)NCCC(=O)O)cc1` [Compound 10-18, (S)-3-(4-((1-((6-(2-chloro-4-(trifluoromethyl)phenyl)pyridin-3-yl)oxy)-4-methylpentan-2-yl)amino)benzamido)propanoic Acid], the IC50 on glucagon receptor (GCGR) (setting [2]) turned out to be 234 nM. For the same compound, the “IC50 cAMP” value in assay [1] (setting [3]) is on record as 880 nM.
The like results for `CCCC[C@@H](COc1ccc(-c2ccc(C(F)(F)F)cc2)c(Cl)c1)Nc1ccc(C(=O)NCCC(=O)O)cc1` [Compound 3-16, (S)-3-(4-((1-((2-chloro-4′-(trifluoromethyl)-[1,1′-biphenyl]-4-yl)oxy)hexan-2-yl)amino)benzamido)propanoic Acid] were, in that order, 51 nM and 367.7 nM.
The like results for `Cc1cc(OC[C@@H](Nc2ccc(C(=O)NCCC(=O)O)cc2)C(C)C)cc(C)c1-c1ccc(C(F)(F)F)cc1` [Compound 2-4, (S)-3-(4-((1-((2,6-dimethyl-4′-(trifluoromethyl)-[1,1′-biphenyl]-4-yl)oxy)-3-methylbutan-2-yl)amino)benzamido)propanoic Acid] were, in that order, 91 nM and 245.8 nM.
`C[C@@H](Cc1ccc(-c2ccc(C(C)(C)C)cc2)cc1)Nc1ccc(C(=O)NCCC(=O)O)cc1` [Compound 19-4, (S)-3-(4-((1-(4′-(tert-butyl)-[1,1′-biphenyl]-4-yl)propan-2-yl)amino)benzamido)propanoic Acid] had an IC50 on glucagon receptor (GCGR) of 1630 nM. For the same compound, the “IC50 cAMP” value in assay [1] worked out at 3488 nM.
For `CC(C)[C@@H](COc1cc(F)c(-c2ccc(C(F)(F)F)cc2)c(F)c1)Nc1ccc(C(=O)NCCC(=O)O)cc1` [Compound 7-3, (S)-3-(4-((1-((2,6-difluoro-4′-(trifluoromethyl)-[1,1′-biphenyl]-4-yl)oxy)-3-methylbutan-2-yl)amino)benzamido)propanoic Acid], on glucagon receptor (GCGR) (setting [2]), the IC50 came to 107 nM. The “IC50 cAMP” value in assay [1] (setting [3]) is given as 140 nM.
The like results for `CC[C@H](C)[C@@H](COc1ccc(-c2cc3ccccc3o2)cc1)Nc1ccc(C(=O)NCc2nnn[nH]2)cc1` [Compound 1-8] were, in that order, 98 nM and 3305 nM.
The compound `CC(C)[C@@H](COc1ccc(-c2nc3ccccc3s2)c(F)c1)Nc1ccc(C(=O)NCCC(=O)O)cn1` [Compound 9-5, (S)-3-(6-((1-(4-(benzo[d]thiazol-2-yl)-3-fluorophenoxy)-3-methylbutan-2-yl)amino)nicotinamido)propanoic Acid] returned an IC50 at glucagon receptor (GCGR) (setting [2]) of 606 nM. Also, in assay [1] (setting [3]), the “IC50 cAMP” value stood at 2408 nM.
In turn, `CC(C)[C@@H](COc1nnc(-c2ccc(Cl)cc2Cl)o1)Nc1ccc(C(=O)NCCC(=O)O)cc1` [Compound 22-14, (S)-3-(4-((1-((5-(2,4-dichlorophenyl)-1,3,4-oxadiazol-2-yl)oxy)-3-methylbutan-2-yl)amino)benzamido)propanoic Acid] gave an IC50 on glucagon receptor (GCGR) greater than 30000 nM. Further, the “IC50 cAMP” value in assay [1] was greater than 30000 nM.
`CC(C)COC[C@H](Cc1ccc(-c2cccc(OC(F)(F)F)c2)cc1)Nc1ccc(C(=O)NCCC(=O)O)cc1` [Compound 19-30, (S)-3-(4-((1-isobutoxy-3-(3′-(trifluoromethoxy)-[1,1′-biphenyl]-4-yl)propan-2-yl)amino)benzamido)propanoic Acid] yielded an IC50 on glucagon receptor (GCGR) of 548 nM. The “IC50 cAMP” value in assay [1] worked out at 1104 nM.
The matching figures for `CC(C)[C@@H](COc1ccc(-c2ccc(C(F)(F)F)cc2Cl)cn1)Nc1ccc(C(=O)NCCC(=O)O)cc1` [Compound 15-9, (S)-3-(4-((1-((5-(2-chloro-4-(trifluoromethyl)phenyl)pyridin-2-yl)oxy)-3-methylbutan-2-yl)amino)benzamido)propanoic Acid]: 330 nM and 81.5 nM.
For `CC(C)C[C@@H](COc1ccc(-c2ccc(Cl)cc2Cl)nn1)Nc1ccc(C(=O)NCCC(=O)O)cc1` [Compound 17-2, (S)-3-(4-((1-((6-(2,4-dichlorophenyl)pyridazin-3-yl)oxy)-4-methylpentan-2-yl)amino)benzamido)propanoic Acid], at glucagon receptor (GCGR) (setting [2]), the IC50 was 139 nM. Besides, the “IC50 cAMP” value in assay [1] (setting [3]) came to 716 nM.
The matching figures for `CC(C)C[C@@H](COc1cnn(-c2ccc(F)cc2F)c1)Nc1ccc(C(=O)NCCC(=O)O)cc1` [Compound 9-6, (S)-3-(4-((1-((1-(2,4-difluorophenyl)-1H-pyrazol-4-yl)oxy)-4-methylpentan-2-yl)amino)benzamido)propanoic Acid]: 3650 nM and 5577 nM.
At glucagon receptor (GCGR), `CC(C)[C@@H](COc1nnc(-c2ccc(C(F)(F)F)cc2F)o1)Nc1ccc(C(=O)NCCC(=O)O)cc1` [Compound 22-17] registered an IC50 greater than 30000 nM. The “IC50 cAMP” value in assay [1] is reported as greater than 30000 nM.
`CC[C@H](C)[C@@H](COc1ccc(-c2ccc(Cl)cc2Cl)c(OC)c1)Nc1ccc(C(=O)NCCC(=O)O)cc1` [Compound 13-2, 3-(4-(((2S,3S)-1-((2′,4′-dichloro-2-methoxy-[1,1′-biphenyl]-4-yl)oxy)-3-methylpentan-2-yl)amino)benzamido)propanoic Acid] showed an IC50 on glucagon receptor (GCGR) (setting [2]) of 92 nM. Besides, the “IC50 cAMP” value in assay [1] (setting [3]) came out at 254 nM.
The like results for `CCCC[C@@H](COc1ccc(-c2ccc(C(F)(F)F)cc2)nc1)Nc1ccc(C(=O)NCCC(=O)O)cc1` [Compound 10-9, (S)-3-(4-((1-((6-(4-(trifluoromethyl)phenyl)pyridin-3-yl)oxy)hexan-2-yl)amino)benzamido)propanoic Acid] were, in that order, 127 nM and 465 nM.
Consider `CC[C@H](C)[C@@H](COc1ccc(-c2ccc(Cl)cc2Cl)cc1)Nc1ccc(C(=O)NCc2nnn[nH]2)cc1` [Compound 1-13, N-((1H-tetrazol-5-yl)methyl)-4-(((2S,3S)-1-((2′,4′-dichloro-[1,1′-biphenyl]-4-yl)oxy)-3-methylpentan-2-yl)amino)benzamide], for which the IC50 at glucagon receptor (GCGR) (setting [2]) is 141 nM. The “IC50 cAMP” value in assay [1] (setting [3]) is reported as 1730 nM.
Compound `CC[C@H](C)[C@@H](COc1ccc(-c2ccc(C(F)(F)F)cc2F)cn1)Nc1ccc(C(=O)NCCC(=O)O)cc1` [Compound 15-14, 3-(4-(((2S,3S)-1-((5-(2-fluoro-4-(trifluoromethyl)phenyl)pyridin-2-yl)oxy)-3-methylpentan-2-yl)amino)benzamido)propanoic Acid] showed an IC50 at glucagon receptor (GCGR) of 379 nM. The “IC50 cAMP” value in assay [1] is given as 280.6 nM.
`CCCC[C@@H](COc1cc(C)c(-c2cc3ccccc3o2)c(C)c1)Nc1ccc(C(=O)NCCC(=O)O)cc1` [Compound 2-12, (S)-3-(4-((1-(4-(benzofuran-2-yl)-3,5-dimethylphenoxy)hexan-2-yl)amino)benzamido)propanoic Acid]: on glucagon receptor (GCGR) (setting [2]), the IC50 was 108 nM. In addition, in assay [1] (setting [3]), the “IC50 cAMP” value came to 62.8 nM.
Turning to `CCCC[C@@H](COc1nnc(-c2ccc(C(F)(F)F)cc2)o1)Nc1ccc(C(=O)NCCC(=O)O)cc1` [Compound 22-5, (S)-3-(4-((1-((5-(4-(trifluoromethyl)phenyl)-1,3,4-oxadiazol-2-yl)oxy)hexan-2-yl)amino)benzamido)propanoic Acid], the IC50 on glucagon receptor (GCGR) is greater than 30000 nM. The “IC50 cAMP” value in assay [1] is given as greater than 30000 nM.
For the compound `CC[C@H](C)[C@@H](COc1ccc(-c2ccc(C(F)(F)F)cc2)c(F)c1)Nc1ccc(C(=O)NCCC(=O)O)cc1` [Compound 8-14, 3-(4-(((2S,3S)-1-((2-fluoro-4′-(trifluoromethyl)-[1,1′-biphenyl]-4-yl)oxy)-3-methylpentan-2-yl)amino)benzamido)propanoic Acid], at glucagon receptor (GCGR) (setting [2]), the IC50 was determined as 251 nM. In assay [1] (setting [3]), the “IC50 cAMP” value amounted to 250 nM.
Turning to `CCCC[C@@H](Cc1ccc(-c2cc3ccccc3o2)cc1)Nc1ccc(C(=O)NCCC(=O)O)cc1` [Compound 19-11, (S)-3-(4-((1-(4-(benzofuran-2-yl)phenyl)hexan-2-yl)amino)benzamido)propanoic Acid], the IC50 at glucagon receptor (GCGR) was 283 nM. Further, the “IC50 cAMP” value in assay [1] is 259.9 nM.
